Source: patent US20020107195A1, “Method for inducing chemotaxis in endothelial cells by administering stromal cell derived factor-1alpha” (SmithKline Beecham Corporation, priority 1998, published 2002)
“Also recorded” adds a separate entry of the source. *1 amine or outer side, *2 acyl side, *3 side chain or, on linkers, in order; H or OH if unused. Where a SMILES comes first, the peptide text is derived from it. Bridges are numbered along the chain shown (N, C = ends). Roman numbers before positions name the chains, in order. [ ]: non-standard residue; d: D form. Actinocin(9to1) = Cc1c2oc3c(C)ccc(C(=O)[*:1])c3nc-2c(C(=O)[*:2])c(N)c1=O; NMeV = CN[C@H](C(=O)O)C(C)C; Sar = CNCC(=O)O

What was measured:
Type in all cases: cell-based, human
[1] = system: CXCR4 mRNA; test: Northern blot analysis of steady state CXCR4 mRNA levels in HUVEC treated with mediators; conditions: for CXCR4 mRNA levels (normalized against GAPDH): HUVEC, after 24 hours of treatment
Experimental: Total RNA (10 μg/lane) was fractionated on 1% agarose-formaldehyde gels, transferred to a nylon membrane (Amersham Corp., Piscataway, N.J.) and covalently linked with a UV crosslinker (Stratagene Inc., La Jolla, Calif.). For Northern analysis, 515-base pair size cDNA probes of CXCR1, CXCR2, CXCR3, CXCR4, CCR1, CCR2 and CCR3, were used. The GAPDH gene probe (Clontech, Palo Alto, Calif.) was used to normalize RNA sample differences in each lane. The probes were labeled with [a-^32P] dCTP using a random-prime labeling kit (Promega Corp., Madison, Wis.), and hybridized overnight at 42° C. in 6X SSC buffer (1X SSC=150 mM NaCL, 15 mM Na Citrate), .1% sodium dodecyl sulfate, 5X Denhardt's solution, 50% formamide, and 100 μg/ml denatured salmon sperm DNA. Membranes were washed with a final stringency of 0.2X SSC at 60° C., and analyzed with a phosphorimager (Molecular Dynamics, Inc., Sunnyvale, Calif.) after exposure at room temperature for 3-5 days. Densitometry was used for quantitative analysis.
CXCR4 transcripts are well expressed in many non-hematopoietic vascular tissues like heart, brain, lung and colon. Federsppiel, et al. Genomics 16: 707-712 (1993). However, at the cellular level, this expression was selective for EC, as indicated by the failure of total RNA from human pulmonary artery smooth muscle cells (HPASMC) to hybridize with the CXCR4 cDNA probe. To understand the regulation of CXCR4 in EC during inflammation, we treated the HUVEC with various mediators and measured its steady state mRNA levels after normalization against the GAPDH cDNA probe.
In order to understand the kinetics of inflammation mediated transcriptional regulation of CXCR4, actinomycin D was used to determine the half-life of CXCR4 mRNA. […] Many cytokines and cytokine receptors, including CXCR4, have A-U rich elements in their untranslated regions that serve as targeting motifs for transcript degradation by specific RNAses. Shaw, et al., Cell 46: 659-667 (1986). In addition to its action as a transcriptional inhibitor, actinomycin D also has the unique and immediate effect of imparting stability to existing transcripts of mRNA undergoing rapid turnover.

[2] = system: HUVEC; test: Measurement of intracellular calcium [Ca2+]i in EC (fura-2); conditions: for elevation of [Ca+2]i (mobilization of intracellular Ca2+): HUVEC / EC
Experimental: For measurements of intracellular calcium [Ca^2+]i, EC were loaded with 2 μM fura-2/AM (Molecular Probes, Eugene, OR), rinsed with 1 mM EDTA in Dulbecco's PBS, and resuspended into Kreb's Ringer's Henseleit (KRH) buffer, pH 7.4, containing 0.1% gelatin. Cells (1x 10^6/ml) were stored on ice and diluted for use 1:1 with fresh KRH buffer at 37° C. Fluorescence of fura-2 in cells was measured with a University of Pennsylvania Biomedical Instruments Group dual channel fluorometer. Data was captured as voltage recordings with the aid of a PC and analyzed by Igor version 1.28 software (WaveMetrics, Lake Oswego, Oreg.). Chemokines were added from concentrated stocks in water. To establish the integrity of EC, we also measured [Ca^2+]i stimulated by thrombin.
To determine whether the human EC express a functional CXCR4 receptor, our subsequent studies used SDF-1α along with several other chemokines to assess their ability to induce changes in intracellular levels of Ca^+2 and cause migration. […] In contrast, other chemokines like γ-IP10, IL-8, PF-4, MIP-1α, MCP-1, eotaxin and RANTES had no effect on EC.

[3] = system: HUVEC; test: HUVEC migration (chemotaxis) assay, Transwell; conditions: for effect on EC chemotaxis: HUVEC
Experimental: HUVEC migration assay was performed using 5×10^5 cells/well (in CS-C medium) in the top chamber of a 6.5 mm diameter, 8-μM pore polycarbonate Transwell culture insert (Costar, Cambridge, Mass.) as reported previously (36). Incubation was carried out at 37° C. in 5% CO2 for 20 hrs. After incubation, migrated cells in the lower chamber were counted with a ZM Coulter counter (Coulter Diagnostics, Hialeah, Fla.). Percent migration was calculated based on the total initial input cells per well.
The Applicant next studied the chemotactic response of EC to SDF-1α. SDF-1α induced a pronounced migration of ˜40% of input EC in a concentration-related manner with an EC50 of 10-20 nM. It is intriguing to observe the high percentage of EC that migrated in response to SDF-1α, even though EC have limited migratory capability in comparison with neutrophils and monocytes. In contrast with other EC chemo-attractants like vitronectin, the chemotactic response to SDF-1α was kinetically robust, and a majority of the migrated cells entered the lower chamber without adhering to the Transwell filter. In these experiments, other chemokines like γ-IP10, IL-8, MIP-1α, MCP-1, eotaxin and RANTES had no effect on EC chemotaxis. Taken together, these observations have obvious biological significance, in that they indicate that SDF-1α plays a role in re-endothelialization after injury, an event that requires the directed migration of EC.

Molecule: TGF-β
- CXCR4 mRNA levels (normalized against GAPDH) [1]: no effect

Molecule: eotaxin: chemokine from R&D Systems
- elevation of [Ca+2]i (mobilization of intracellular Ca2+) [2]: no effect
- effect on EC chemotaxis [3]: no effect

Molecule: γ-IP10: chemokine from R&D Systems
- CXCR4 mRNA levels (normalized against GAPDH) [1]: no effect
- elevation of [Ca+2]i (mobilization of intracellular Ca2+) [2]: no effect
- effect on EC chemotaxis [3]: no effect

Molecule: MCP-1: chemokine from R&D Systems
- elevation of [Ca+2]i (mobilization of intracellular Ca2+) [2]: no effect
- effect on EC chemotaxis [3]: no effect

Molecule: SDF-1α: stromal cell derived factor-1α, polypeptide of SEQ ID NO:4, CXC chemokine ligand of CXCR4; obtained from Gryphon Sciences
- concentration of maximal [Ca+2]i response ([2]; HUVEC): 100 nM
- elevation of [Ca+2]i (mobilization of intracellular Ca2+) [2]: rapid, though variable elevation; also recorded: induced a rapid mobilization
- migration, percent of input EC ([3]; 20 hrs incubation, Transwell): ~40%
- EC50 ([3]; concentration-related migration of EC): 10 to 20 nM

Molecule: IL-8: chemokine from R&D Systems
- elevation of [Ca+2]i (mobilization of intracellular Ca2+) [2]: no effect
- effect on EC chemotaxis [3]: no effect

Molecule: TNF-α
- CXCR4 mRNA levels (normalized against GAPDH) [1]: to a lesser extent, TNF-α, caused a decrease

Molecule: IL-1β: recombinant human IL-1β purchased from Genzyme
- CXCR4 mRNA levels (normalized against GAPDH) [1]: significant induction

Molecule: Cc1c2oc3c(C)ccc(C(=O)N[C@@H]4C(=O)N[C@H](C(C)C)C(=O)N5CCC[C@H]5C(=O)N(C)CC(=O)N(C)[C@@H](C(C)C)C(=O)O[C@@H]4C)c3nc-2c(C(=O)N[C@@H]2C(=O)N[C@H](C(C)C)C(=O)N3CCC[C@H]3C(=O)N(C)CC(=O)N(C)[C@@H](C(C)C)C(=O)O[C@@H]2C)c(N)c1=O [actinomycin D] (I: T[dV]P[Sar][NMeV] / II: T[dV]P[Sar][NMeV]; ester I:1-I:C, II:1-II:C; linker I:N-II:N via Actinocin(9to1))
- steady state levels of CXCR4 mRNA after short term exposure ([1]; EC cultures, exposure of only 15-30 minutes): sharply increasing
- CXCR4 mRNA levels (normalized against GAPDH) [1]: almost complete abrogation

Molecule: IFN-γ: recombinant human IFN-γ purchased from Genzyme
- CXCR4 mRNA levels (normalized against GAPDH) [1]: decrease

B1: RANTES: chemokine from R&D Systems (protein, UniProt P13501 24-91, looked up)
C-C motif chemokine 5: SPYSSDTTPCCFAYIARPLPRAHIKEYFYTSGKCSNPAVVFVTRKNRQVCANPEKKWVREYINSLEMS
- elevation of [Ca+2]i (mobilization of intracellular Ca2+) [2]: no effect
- effect on EC chemotaxis [3]: no effect

B2: MIP-1α: chemokine from R&D Systems (protein, UniProt P10147 24-92, looked up)
C-C motif chemokine 3: SLAADTPTACCFSYTSRQIPQNFIADYFETSSQCSKPGVIFLTKRSRQVCADPSEEWVQKYVSDLELSA
- elevation of [Ca+2]i (mobilization of intracellular Ca2+) [2]: no effect
- effect on EC chemotaxis [3]: no effect

B3: PF-4: chemokine from R&D Systems (protein, UniProt P02776 32-101, looked up)
Platelet factor 4: EAEEDGDLQCLCVKTTSQVRPRHITSLEVIKAGPHCPTAQLIATLKNGRKICLDLQAPLYKKIIKKLLES
- elevation of [Ca+2]i (mobilization of intracellular Ca2+) [2]: no effect
